In article PMC8725837, “2-Arylquinolines as novel anticancer agents with dual EGFR/FAK kinase inhibitory activity: synthesis, biological evaluation, and molecular modelling insights” (Journal of Enzyme Inhibition and Medicinal Chemistry, 2021):

Columns and labels:
[1] = test system: MDMBA-231 breast cancer cell line; experiment: MTT antiproliferative assay, MDMBA-231; type: cell-based; conditions: 10 µM, 24 h
Method: (§1) At least, three independent experiments were performed.

[2] = test system: MCF-7 breast cancer cell line; experiment: MTT antiproliferative assay, MCF-7; type: cell-based; conditions: 10 µM, 24 h
Method: as §1

[3] = test system: HeLa cervical cancer cell line; experiment: MTT antiproliferative assay, HeLa; type: cell-based; conditions: 10 µM, 24 h
Method: as §1

[4] = test system: DLD-1 colorectal cancer cell line; experiment: Annexin V-FITC/propidium iodide apoptosis assay (AV/PI); type: cell-based; conditions: 3 µM, 24 h; control 7%
Method: Also, compounds 6f, 6i, 16d, and 20f exerted potential apoptotic effect elevating the total percentage of apoptotic cells to 84.33, 71.66, 51.66, and 80.66%, respectively.
Flow cytometric analysis was conducted using FACS Calibur flow cytometer (BD Biosciences, San Jose, CA, USA).

FRK = biological target: T1, FRK (Homo sapiens, UniProt P42685); experiment: Z`-LYTE kinase profiling, FRK; type: biochemical
T1 construct: purchased Invitrogen/Life Technologies

IGF-1R = biological target: T2, IGF-1R (Homo sapiens, UniProt P08069); experiment: Z`-LYTE kinase profiling, IGF-1R; type: biochemical
T2 construct: purchased Invitrogen/Life Technologies

BTK = biological target: T3, BTK (Homo sapiens, UniProt Q06187); experiment: Z`-LYTE kinase profiling, BTK; type: biochemical
T3 construct: purchased Invitrogen/Life Technologies

c-Src = biological target: T4, c-Src (Homo sapiens, UniProt P12931); experiment: Z`-LYTE kinase profiling, c-Src; type: biochemical
T4 construct: purchased Invitrogen/Life Technologies

VEGFR-1 = biological target: T5, VEGFR-1 (Homo sapiens, UniProt P17948); experiment: Z`-LYTE kinase profiling, VEGFR-1; type: biochemical
T5 construct: purchased Invitrogen/Life Technologies

VEGFR-2 = biological target: T6, VEGFR-2 (Homo sapiens, UniProt P35968); experiment: Z`-LYTE kinase profiling, VEGFR-2; type: biochemical
T6 construct: purchased Invitrogen/Life Technologies

HER-2 = biological target: T7, HER-2 (Homo sapiens, UniProt P04626); experiment: Z`-LYTE kinase profiling, HER-2; type: biochemical
T7 construct: purchased Invitrogen/Life Technologies

[5] = test system: DLD-1 colorectal cancer cell line; experiment: MTT antiproliferative assay, DLD-1; conditions: for GI% DLD1: 10 µM, 24 h, MTT; for IC50: Homo sapiens, DLD-1, 24 h, read-out: IC50 DLD1 (half maximal growth inhibitory concentration); for fold superior activity compared to Gefitinib, DLD-1: from IC50 values
Method: (§2) After the incubation of the tested compounds for 24 h, the percent growth inhibition (GI%) was calculated.
(§3) Cells were seeded at 1 × 10^4 cells/well and cultured overnight in a 96-well plate. […] Then, 150 µl DMSO was used to solubilise MTT formazan crystals. Finally, the plates were shaken, and the optical density was determined at 570 nm using ELISA plate reader. At least, three independent experiments were performed. Percentage of growth inhibition was determined as (1-[OD of treated cells/OD of control cells]). […] The IC50 values were calculated using Prism v0.8 software (GraphPad Software Inc., La Jolla, CA).

[6] = test system: HCT-116 colorectal cancer cell line; experiment: MTT antiproliferative assay, HCT-116; conditions: for GI% HCT-116: 10 µM, 24 h, MTT; for IC50: Homo sapiens, HCT-116, 24 h, read-out: IC50 HCT-116 (half maximal growth inhibitory concentration)
Method: as §2, §3

FAK = FAK (Homo sapiens, UniProt Q05397); experiment: Z`-LYTE kinase inhibitory assay, FAK
EGFR = EGFR (Homo sapiens, UniProt P00533); experiment: Z`-LYTE kinase inhibitory assay, EGFR
recombinant human TOP1 = biological target: T8, recombinant human TOP1 (Homo sapiens, UniProt P11387); experiment: Topoisomerase I-mediated DNA cleavage assay; conditions: tested at 0.1, 1, 10, 100 µM
T8 sequence (P11387 1-765): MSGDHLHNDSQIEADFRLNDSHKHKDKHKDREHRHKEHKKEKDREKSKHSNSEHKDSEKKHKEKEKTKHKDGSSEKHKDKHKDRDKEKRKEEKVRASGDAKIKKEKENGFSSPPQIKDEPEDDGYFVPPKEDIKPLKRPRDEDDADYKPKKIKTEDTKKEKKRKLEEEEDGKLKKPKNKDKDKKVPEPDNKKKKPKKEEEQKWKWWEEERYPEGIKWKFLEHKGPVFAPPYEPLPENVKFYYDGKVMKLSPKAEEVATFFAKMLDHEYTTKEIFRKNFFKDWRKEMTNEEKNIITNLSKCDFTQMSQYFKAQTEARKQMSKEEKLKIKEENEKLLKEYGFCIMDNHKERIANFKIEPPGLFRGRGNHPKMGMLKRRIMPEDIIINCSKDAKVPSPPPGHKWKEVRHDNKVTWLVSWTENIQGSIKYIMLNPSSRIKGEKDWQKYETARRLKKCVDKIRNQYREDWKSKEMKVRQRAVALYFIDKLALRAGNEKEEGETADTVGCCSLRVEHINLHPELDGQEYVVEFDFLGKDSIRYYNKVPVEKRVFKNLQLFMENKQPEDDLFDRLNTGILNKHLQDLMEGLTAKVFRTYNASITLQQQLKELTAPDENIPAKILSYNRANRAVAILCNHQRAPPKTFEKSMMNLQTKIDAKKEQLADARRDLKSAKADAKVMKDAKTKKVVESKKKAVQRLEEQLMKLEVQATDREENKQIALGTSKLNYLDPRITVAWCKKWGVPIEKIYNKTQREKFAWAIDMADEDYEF
Method: Radiolabeled DNA was incubated with recombinant human TOP1 in 20 µL reaction buffer (10 mmol/L Tris-HCl, pH 7.5, 50 mmol/L KCl, 5 mmol/L MgCl2, 0.1 mmol/L EDTA, and 15 µg/mL BSA) at 30 °C for 20 min in the presence of the indicated drug concentrations. Reactions were terminated by adding SDS (0.5% final concentration) followed by the addition of two volumes of loading dye (80% formamide, 10 mmol/L sodium hydroxide, 1 mmol/L sodium EDTA, 0.1% xylene cyanol, and 0.1% bromophenol blue). Aliquots of reaction mixtures were subjected to 20% denaturing PAGE. Gels were dried and visualised by using PhosphorImager and Image Quant software (Molecular Dynamics).

T1 sequence (P42685 whole entry): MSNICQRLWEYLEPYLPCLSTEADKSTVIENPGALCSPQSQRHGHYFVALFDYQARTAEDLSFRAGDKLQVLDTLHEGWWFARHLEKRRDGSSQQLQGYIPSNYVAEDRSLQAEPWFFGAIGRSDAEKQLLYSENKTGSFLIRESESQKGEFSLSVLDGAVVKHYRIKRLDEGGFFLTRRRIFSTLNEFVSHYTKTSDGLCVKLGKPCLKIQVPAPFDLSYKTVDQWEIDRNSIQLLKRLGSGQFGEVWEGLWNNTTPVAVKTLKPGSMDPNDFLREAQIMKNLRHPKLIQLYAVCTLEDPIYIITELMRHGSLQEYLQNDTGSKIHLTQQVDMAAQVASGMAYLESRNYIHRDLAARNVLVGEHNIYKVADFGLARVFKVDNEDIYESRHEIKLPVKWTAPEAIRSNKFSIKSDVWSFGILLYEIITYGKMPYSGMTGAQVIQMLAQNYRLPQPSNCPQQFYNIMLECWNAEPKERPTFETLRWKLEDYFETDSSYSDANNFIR
T5 sequence (P17948 27-1338): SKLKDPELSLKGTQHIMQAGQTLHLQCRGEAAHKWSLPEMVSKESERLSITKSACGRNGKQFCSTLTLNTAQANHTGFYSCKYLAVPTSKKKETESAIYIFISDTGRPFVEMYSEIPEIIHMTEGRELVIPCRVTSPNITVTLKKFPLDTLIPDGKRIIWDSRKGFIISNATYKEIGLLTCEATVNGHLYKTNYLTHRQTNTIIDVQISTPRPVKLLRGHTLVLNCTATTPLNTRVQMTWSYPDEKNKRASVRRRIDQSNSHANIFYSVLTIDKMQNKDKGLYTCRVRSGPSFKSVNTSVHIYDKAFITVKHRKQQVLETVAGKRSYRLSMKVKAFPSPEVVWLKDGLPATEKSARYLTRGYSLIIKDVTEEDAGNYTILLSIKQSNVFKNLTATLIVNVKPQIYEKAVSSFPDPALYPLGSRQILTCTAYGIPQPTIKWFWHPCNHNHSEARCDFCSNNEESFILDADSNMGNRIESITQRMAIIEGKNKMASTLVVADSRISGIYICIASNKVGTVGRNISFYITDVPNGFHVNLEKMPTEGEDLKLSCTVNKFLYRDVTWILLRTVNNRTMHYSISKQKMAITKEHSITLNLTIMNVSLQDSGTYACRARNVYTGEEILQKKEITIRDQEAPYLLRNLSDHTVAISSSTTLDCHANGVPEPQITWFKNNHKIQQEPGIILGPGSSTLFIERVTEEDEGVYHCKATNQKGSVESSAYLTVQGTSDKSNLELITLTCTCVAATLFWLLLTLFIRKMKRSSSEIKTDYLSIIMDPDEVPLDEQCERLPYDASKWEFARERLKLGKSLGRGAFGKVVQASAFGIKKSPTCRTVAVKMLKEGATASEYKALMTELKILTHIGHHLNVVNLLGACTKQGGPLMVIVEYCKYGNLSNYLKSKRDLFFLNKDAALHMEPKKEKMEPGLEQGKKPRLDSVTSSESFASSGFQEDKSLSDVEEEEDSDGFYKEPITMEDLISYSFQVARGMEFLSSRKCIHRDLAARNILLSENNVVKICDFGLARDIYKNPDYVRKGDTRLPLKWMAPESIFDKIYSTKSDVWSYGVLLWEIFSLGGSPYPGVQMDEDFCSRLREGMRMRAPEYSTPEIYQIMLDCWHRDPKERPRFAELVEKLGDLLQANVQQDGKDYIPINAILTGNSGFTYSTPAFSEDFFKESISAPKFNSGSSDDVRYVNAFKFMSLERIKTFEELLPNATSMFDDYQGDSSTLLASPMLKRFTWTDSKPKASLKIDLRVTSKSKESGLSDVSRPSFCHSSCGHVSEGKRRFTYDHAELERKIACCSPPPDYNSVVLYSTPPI
T7 sequence (P04626 23-1255): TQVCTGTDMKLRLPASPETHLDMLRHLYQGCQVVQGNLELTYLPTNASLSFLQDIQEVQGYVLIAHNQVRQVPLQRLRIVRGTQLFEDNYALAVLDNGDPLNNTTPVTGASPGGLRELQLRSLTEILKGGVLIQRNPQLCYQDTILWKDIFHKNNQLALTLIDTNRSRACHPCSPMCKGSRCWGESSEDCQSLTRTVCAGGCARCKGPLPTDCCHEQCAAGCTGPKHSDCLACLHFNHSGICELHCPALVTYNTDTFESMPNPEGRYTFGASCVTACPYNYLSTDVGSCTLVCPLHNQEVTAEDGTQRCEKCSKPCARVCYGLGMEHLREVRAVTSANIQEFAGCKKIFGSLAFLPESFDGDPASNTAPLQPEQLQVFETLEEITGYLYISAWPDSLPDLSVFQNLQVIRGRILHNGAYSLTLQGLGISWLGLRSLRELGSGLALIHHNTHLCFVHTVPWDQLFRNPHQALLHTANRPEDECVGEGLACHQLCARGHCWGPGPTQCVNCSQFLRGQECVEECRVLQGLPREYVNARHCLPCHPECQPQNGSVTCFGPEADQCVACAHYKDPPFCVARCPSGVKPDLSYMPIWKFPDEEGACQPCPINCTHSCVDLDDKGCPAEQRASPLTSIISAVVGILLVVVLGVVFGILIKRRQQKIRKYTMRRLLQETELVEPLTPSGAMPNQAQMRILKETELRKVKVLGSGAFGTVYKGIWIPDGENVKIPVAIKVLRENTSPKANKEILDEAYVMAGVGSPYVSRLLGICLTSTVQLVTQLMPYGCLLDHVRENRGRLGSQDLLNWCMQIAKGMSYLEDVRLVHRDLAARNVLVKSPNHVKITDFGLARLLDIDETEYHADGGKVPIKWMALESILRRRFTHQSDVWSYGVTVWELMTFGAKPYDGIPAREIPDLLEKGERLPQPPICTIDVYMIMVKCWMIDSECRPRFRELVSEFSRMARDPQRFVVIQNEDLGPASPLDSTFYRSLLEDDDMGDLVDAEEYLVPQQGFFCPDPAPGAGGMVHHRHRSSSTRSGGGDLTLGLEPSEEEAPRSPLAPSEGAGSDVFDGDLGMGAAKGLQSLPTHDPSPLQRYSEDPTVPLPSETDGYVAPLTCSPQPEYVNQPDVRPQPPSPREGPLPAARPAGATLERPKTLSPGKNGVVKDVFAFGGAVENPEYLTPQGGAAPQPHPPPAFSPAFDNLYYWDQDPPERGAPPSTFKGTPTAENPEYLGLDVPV
T6 sequence (P35968 20-1356): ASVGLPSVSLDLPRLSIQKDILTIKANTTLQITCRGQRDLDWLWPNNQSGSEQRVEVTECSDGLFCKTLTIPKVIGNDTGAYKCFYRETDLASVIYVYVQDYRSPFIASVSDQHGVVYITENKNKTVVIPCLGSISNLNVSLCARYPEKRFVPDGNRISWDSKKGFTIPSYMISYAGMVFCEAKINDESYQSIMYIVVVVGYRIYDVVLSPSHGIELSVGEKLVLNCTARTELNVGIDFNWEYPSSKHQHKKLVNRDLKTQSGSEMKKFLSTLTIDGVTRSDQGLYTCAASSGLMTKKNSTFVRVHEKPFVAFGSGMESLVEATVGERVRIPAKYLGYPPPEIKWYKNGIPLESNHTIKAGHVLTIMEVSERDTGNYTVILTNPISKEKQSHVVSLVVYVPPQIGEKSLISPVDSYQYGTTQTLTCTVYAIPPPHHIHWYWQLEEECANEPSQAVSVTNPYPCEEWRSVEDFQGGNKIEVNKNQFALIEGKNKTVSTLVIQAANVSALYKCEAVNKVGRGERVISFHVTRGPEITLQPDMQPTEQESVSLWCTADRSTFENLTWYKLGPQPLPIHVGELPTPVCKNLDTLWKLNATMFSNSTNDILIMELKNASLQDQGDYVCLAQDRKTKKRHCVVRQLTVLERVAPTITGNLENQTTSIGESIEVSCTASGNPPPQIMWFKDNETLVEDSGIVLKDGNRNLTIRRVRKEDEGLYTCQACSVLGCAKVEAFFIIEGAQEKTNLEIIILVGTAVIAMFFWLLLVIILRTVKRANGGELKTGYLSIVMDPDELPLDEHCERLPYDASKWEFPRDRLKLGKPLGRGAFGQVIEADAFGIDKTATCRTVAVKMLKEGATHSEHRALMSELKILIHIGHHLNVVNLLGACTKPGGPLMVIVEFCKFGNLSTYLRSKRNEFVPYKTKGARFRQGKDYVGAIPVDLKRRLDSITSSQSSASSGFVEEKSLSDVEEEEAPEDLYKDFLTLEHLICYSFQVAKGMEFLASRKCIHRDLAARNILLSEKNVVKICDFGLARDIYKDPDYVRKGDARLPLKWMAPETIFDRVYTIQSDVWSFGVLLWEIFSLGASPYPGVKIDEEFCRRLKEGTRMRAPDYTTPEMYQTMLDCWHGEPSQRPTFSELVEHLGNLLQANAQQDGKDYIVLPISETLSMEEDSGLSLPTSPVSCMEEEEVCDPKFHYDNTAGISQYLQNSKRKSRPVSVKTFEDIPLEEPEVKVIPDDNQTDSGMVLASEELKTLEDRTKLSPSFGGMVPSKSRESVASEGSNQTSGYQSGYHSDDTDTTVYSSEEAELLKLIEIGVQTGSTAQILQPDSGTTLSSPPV
T3 sequence (Q06187 whole entry): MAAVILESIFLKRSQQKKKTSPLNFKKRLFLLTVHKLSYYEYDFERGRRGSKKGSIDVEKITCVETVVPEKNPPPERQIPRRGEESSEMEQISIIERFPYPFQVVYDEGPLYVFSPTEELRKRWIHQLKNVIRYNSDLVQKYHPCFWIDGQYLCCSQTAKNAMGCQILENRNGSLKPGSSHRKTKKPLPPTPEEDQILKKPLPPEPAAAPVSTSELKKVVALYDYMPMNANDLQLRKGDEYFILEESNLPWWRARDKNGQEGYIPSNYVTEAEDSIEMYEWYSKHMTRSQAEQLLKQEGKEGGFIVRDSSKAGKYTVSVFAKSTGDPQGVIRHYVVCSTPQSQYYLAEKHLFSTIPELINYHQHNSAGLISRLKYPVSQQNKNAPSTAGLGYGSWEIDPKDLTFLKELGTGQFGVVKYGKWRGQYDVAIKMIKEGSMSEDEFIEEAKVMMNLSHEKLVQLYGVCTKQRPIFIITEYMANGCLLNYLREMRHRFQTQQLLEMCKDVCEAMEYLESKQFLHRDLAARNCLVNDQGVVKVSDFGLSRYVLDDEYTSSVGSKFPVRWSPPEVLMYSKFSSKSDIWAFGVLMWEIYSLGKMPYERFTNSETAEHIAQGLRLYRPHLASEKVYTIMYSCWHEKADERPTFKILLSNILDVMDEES

| SMILES | IC50 (FRK) | IC50 (IGF-1R) | IC50 (BTK) | IC50 (c-Src) | IC50 (VEGFR-1) | IC50 (VEGFR-2) | IC50 (HER-2) | IC50 [5] | IC50 [6] | IC50 (FAK) | IC50 (EGFR) | TOP1 inhibitory activity (semiquantitative score relative to 1 µM CPT) (recombinant human TOP1) | melting point | GI% MDMBA-231 [1] | GI% MCF-7 [2] | GI% Hela [3] | total percentage of AV positive apoptotic DLD-1 cells [4] | GI% DLD1 [5] | fold superior activity compared to Gefitinib, DLD-1 [5] | GI% HCT-116 [6] |
| --- | --- | --- | --- | --- | --- | --- | --- | --- | --- | --- | --- | --- | --- | --- | --- | --- | --- | --- | --- | --- |
| COc1cc2nc(-c3ccc(C(F)(F)F)cc3)cc(OCCCNCC3CCCO3)c2cc1OC (stereo not drawn) [6i, 3-((6,7-dimethoxy-2–(4-(trifluoromethyl)phenyl)quinolin-4-yl)oxy)-N-((tetrahydrofuran-2-yl)methyl)propan-1-amine] | 1.21 µM | 1.71 µM | 7.29 µM | 7.01 µM | 0.801 µM | 8.24 µM | 1.38 µM | 2.48 ± 0.86 µM | 5.68 ± 1.42 µM | 0.0184 ± 0.00317 µM | 0.0224 ± 0.00205 µM | 0 | – | 81.60% | 89.49% | 78.64% | 71.66% | 88.76% | 4 fold | 82.11% |
| Fc1ccc(-c2cc(OCCCN3CCOCC3)c3cc(Br)ccc3n2)cc1 [16d, 4-(3-((6-bromo-2-(4-fluorophenyl)quinolin-4-yl)oxy)propyl)morpholine] | 1.73 µM | 2.23 µM | 2.1 µM | 3.9 µM | 1.77 µM | 4.69 µM | 0.358 µM | 2.18 ± 0.52 µM | 2.43 ± 0.71 µM | 0.0174 ± 0.00215 µM | 0.035 ± 0.00264 µM | 0 | 132 to 134 °C | 80.24% | 86.38% | 85.67% | 51.66% | 90.11% | 4 fold | 97.48% |
| COc1cc2nc(-c3ccc(C(F)(F)F)cc3)cc(OCCCN3CCN(C)CC3)c2cc1OC [6f, 6,7-dimethoxy-4–(3-(4-methylpiperazin-1-yl)propoxy)-2–(4-(trifluoromethyl)phenyl)quin-oline] | 5.05 µM | 5.35 µM | 8.79 µM | 3.94 µM | 1.73 µM | 1.94 µM | 0.639 µM | 2.25 ± 0.96 µM | 3.09 ± 1.05 µM | 0.0227 ± 0.00238 µM | 0.0254 ± 0.00349 µM | 0 | – | 75.34% | 94.36% | 69.17% | 84.33% | 95.36% | 4 fold | 88.46% |

Now those with a lower IC50 (FRK), led by results:

| IC50 (FRK) | IC50 (IGF-1R) | IC50 (BTK) | IC50 (c-Src) | IC50 (VEGFR-1) | IC50 (VEGFR-2) | IC50 (HER-2) | IC50 [5] | IC50 [6] | IC50 (FAK) | IC50 (EGFR) | TOP1 inhibitory activity (semiquantitative score relative to 1 µM CPT) (recombinant human TOP1) | melting point | SMILES | GI% MDMBA-231 [1] | GI% MCF-7 [2] | GI% Hela [3] | total percentage of AV positive apoptotic DLD-1 cells [4] | GI% DLD1 [5] | fold superior activity compared to Gefitinib, DLD-1 [5] | GI% HCT-116 [6] |
| --- | --- | --- | --- | --- | --- | --- | --- | --- | --- | --- | --- | --- | --- | --- | --- | --- | --- | --- | --- | --- |
| 0.632 µM | 3.53 µM | 0.0235 µM | 0.0921 µM | 0.87 µM | 0.0893 µM | 0.251 µM | 2.09 ± 0.14 µM | 2.96 ± 0.12 µM | 0.0154 ± 0.00098 µM | 0.0248 ± 0.00271 µM | 0 | – | Clc1ccc(-c2cc(OCCCN3CCOCC3)c3cc(-c4ccco4)ccc3n2)cc1 [20f, 4-(3-((2-(4-chlorophenyl)-6-(furan-2-yl)quinolin-4-yl)oxy)propyl)morpholine] | 82.58% | 87.36% | 79.64% | 80.66% | 94.18% | 4 fold | 91.37% |
| 0.33 µM | 0.197 µM | 3.48 µM | 3.58 µM | 0.464 µM | 2.45 µM | 1.58 µM | 1.79 ± 0.21 µM | 3.28 ± 0.67 µM | 0.0142 ± 0.00272 µM | 0.0202 ± 0.00107 µM | −/+ (−/+: 0–25% 1 µM CPT) | – | COc1cc2nc(-c3ccc(C(F)(F)F)cc3)cc(OCCCNC3CCN(C)CC3)c2cc1OC [6h, N-(3-((6,7-dimethoxy-2–(4-(trifluoromethyl)phenyl)quinolin-4-yl)oxy)propyl)-1-methyl p-iperidin-4-amine] | 84.76% | 90.36% | 90.78% | 90.33% | 92.36% | 5 fold | 89.34% |
